Test results: patent US8735609B2, “Bryostatin analogues, synthetic methods and uses” (The Board of Trustees of the Leland Stanford Junior …, priority 2007, dated 2014)

Assays:
ACHN = experiment: NCI human cancer cell line growth inhibition: ACHN (Renal); assay type: cell-based; conditions: Homo sapiens
PKCδ-C1B = molecular target: T1, PKCδ-C1B (Mus musculus, UniProt P28867); experiment: PKCδ-C1B assay; assay type: binding
T1 construct: made in house
Description: Phosphatidyl serine vesicles are prepared by the addition of phosphatidyl serine (10 mg/mL in chloroform, 0.4 mL) to a glass test tube followed by removal of the chloroform under a stream of nitrogen (5 min). […] The resulting solution is stored over ice. […] Stock solutions of compounds are diluted with absolute ethanol in glass in serial fashion. […] The tubes are incubated at 37° C. for 90 min. and then put on ice for 5 min. Each tube is then filtered separately through a pre-soaked filter disc. […] The filter is subsequently rinsed with cold 20 mM TRIS buffer (5 mL) dropwise. […] The filters are immediately counted in a scintillation counter (Beckman LS 6000SC). Counts per minute are averaged among three trials at each concentration.

LOX IMVI = experiment: NCI human cancer cell line growth inhibition: LOX IMVI (Melanoma); assay type: cell-based; conditions: Homo sapiens
COLO 205 = experiment: NCI human cancer cell line growth inhibition: COLO 205 (Colon); assay type: cell-based; conditions: Homo sapiens
PC-3 = experiment: NCI human cancer cell line growth inhibition: PC-3 (Prostate); assay type: cell-based; conditions: Homo sapiens
NCI-H460 = assay type: cell-based, human; conditions: Homo sapiens; NCI-H460, NSC Lung; read-out: Growth inhibition (GI50)
K-562 = experiment: NCI human cancer cell line growth inhibition: K-562 (Leukemia); assay type: cell-based; conditions: Homo sapiens, K562
SK-MEL-2 = experiment: NCI human cancer cell line growth inhibition: SK-MEL-2 (Melanoma); assay type: cell-based; conditions: Homo sapiens
DU-145 = experiment: NCI human cancer cell line growth inhibition: DU-145 (Prostate); assay type: cell-based; conditions: Homo sapiens
OVCAR-4 = experiment: NCI human cancer cell line growth inhibition: OVCAR-4 (Ovarian); assay type: cell-based; conditions: Homo sapiens
MI4 = experiment: NCI human cancer cell line growth inhibition: MI4 (Melanoma); assay type: cell-based; conditions: Homo sapiens
OVCAR-8 = experiment: NCI human cancer cell line growth inhibition: OVCAR-8 (Ovarian); assay type: cell-based; conditions: Homo sapiens

T1 sequence (P28867 231-281 limits assumed): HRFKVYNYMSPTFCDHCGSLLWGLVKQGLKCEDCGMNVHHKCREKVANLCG

In the case of `CCCCCCCC(=O)O[C@H]1/C(=C/C(=O)OC)C[C@H]2C[C@H](CO)OC(=O)C[C@H](O)C[C@@H]3CCC[C@H](C[C@@H]4CCO[C@H](/C=C/C(C)(C)[C@]1(O)O2)O4)O3` [Formula IIa (702.1)], the GI50 (ACHN) is reported as 1.15 µM, the Ki (PKCδ-C1B) is reported as 0.0003 ± 7e-05 µM and the “activity in PKCδ-C1B assay compared with the corresponding C26 methyl-containing analogue” value (PKCδ-C1B; vs Formula 1998a where R^3 is OH) is reported as “significantly higher activity”. It also gave a GI50 (LOX IMVI) of 3.39 µM, a GI50 (COLO 205) of 0.0832 µM and a GI50 (PC-3) of 2.51 µM. It also gave a GI50 (NCI-H460) of under 0.01 µM, a GI50 (K-562) of 0.0316 µM and a GI50 (SK-MEL-2) of 9.55 µM. The GI50 (DU-145) was 9.55 µM, the GI50 (OVCAR-4) was 7.08 µM and the GI50 (MI4) was 5.5 µM. It also gave a GI50 (OVCAR-8) of 17 µM.
